From ChEMBL document CHEMBL3286223, “Anticancer phytochemical analogs 37: synthesis, characterization, molecular docking and cytotoxicity of novel plumbagin hydrazones against breast cancer cells” (Bioorg Med Chem Lett, 2014)
Activity calls are given as the source filed them. No cut-off for these calls is given here.

Key:
MCF7 = assay: Cytotoxicity against human MCF7 cells expressing estrogen and progesterone receptor after 72 hrs by MTT assay; type: functional, cell-based
MDA-MB-231 = assay: Cytotoxicity against estrogen receptor-deficient human MDA-MB-231 cells after 72 hrs by MTT assay; type: functional, cell-based; settings: MDA-MB-231, 72 h
[1] = Cytotoxicity against human MCF10A cells after 72 hrs by MTT assay; type: cell-based; settings: mcf-10a
[2] = target: Transcription factor p65 (Homo sapiens) (UniProt Q04206); assay: Reduction of NFkappaB p65 expression in estrogen receptor-deficient human MDA-MB-231 cells at 5 uM after 72 hrs by Western blot analysis; type: cell-based
Sequence of Transcription factor p65 (Homo sapiens) (Q04206 whole entry): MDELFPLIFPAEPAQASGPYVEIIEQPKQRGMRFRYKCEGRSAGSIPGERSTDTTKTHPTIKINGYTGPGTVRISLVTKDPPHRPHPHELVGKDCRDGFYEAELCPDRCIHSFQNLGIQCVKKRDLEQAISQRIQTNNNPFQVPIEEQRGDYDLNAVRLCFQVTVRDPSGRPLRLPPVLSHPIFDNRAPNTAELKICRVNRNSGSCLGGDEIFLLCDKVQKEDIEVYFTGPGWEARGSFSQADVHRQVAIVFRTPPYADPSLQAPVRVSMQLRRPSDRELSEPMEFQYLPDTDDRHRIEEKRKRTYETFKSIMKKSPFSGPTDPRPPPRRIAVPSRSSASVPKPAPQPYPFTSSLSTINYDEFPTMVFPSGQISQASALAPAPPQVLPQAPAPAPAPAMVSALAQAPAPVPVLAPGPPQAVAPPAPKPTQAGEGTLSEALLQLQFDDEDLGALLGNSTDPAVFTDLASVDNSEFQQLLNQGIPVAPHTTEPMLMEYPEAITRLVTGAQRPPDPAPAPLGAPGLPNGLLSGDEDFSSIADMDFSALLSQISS

SMILES | Activity (MCF7) | IC50 (MDA-MB-231) | Activity [1] | Activity [2]
CC1=C/C(=N\NC(=O)c2cc3ccccc3cc2O)c2c(O)cccc2C1=O | Active | 3200 nM | Non-toxic | Active
CC1=CC(=O)c2c(O)cccc2C1=O | Active |  |  | 
CC(=O)N/N=C1\C=C(C)C(=O)c2cccc(O)c21 | Active |  | Non-toxic | 
CC1=C/C(=N\NC(=O)Cc2c[nH]c3ccccc23)c2c(O)cccc2C1=O | Active | 1500 nM | Non-toxic | Active
CC1=C/C(=N\NC(N)=S)c2c(O)cccc2C1=O | Active |  | Non-toxic | 
